{"source": "patent US6274330A", "about": "“L-AP4 sensitive glutamate receptors” (ZymoGenetics, Inc., priority 1993, dated 2001)", "key": {"[1]": {"biological_target": "T1, mGluR7 (Rattus norvegicus, UniProt P35400)", "T1 construct": "RNA-injected Xenopus oocytes", "T1 sequence (P35400 35-915)": "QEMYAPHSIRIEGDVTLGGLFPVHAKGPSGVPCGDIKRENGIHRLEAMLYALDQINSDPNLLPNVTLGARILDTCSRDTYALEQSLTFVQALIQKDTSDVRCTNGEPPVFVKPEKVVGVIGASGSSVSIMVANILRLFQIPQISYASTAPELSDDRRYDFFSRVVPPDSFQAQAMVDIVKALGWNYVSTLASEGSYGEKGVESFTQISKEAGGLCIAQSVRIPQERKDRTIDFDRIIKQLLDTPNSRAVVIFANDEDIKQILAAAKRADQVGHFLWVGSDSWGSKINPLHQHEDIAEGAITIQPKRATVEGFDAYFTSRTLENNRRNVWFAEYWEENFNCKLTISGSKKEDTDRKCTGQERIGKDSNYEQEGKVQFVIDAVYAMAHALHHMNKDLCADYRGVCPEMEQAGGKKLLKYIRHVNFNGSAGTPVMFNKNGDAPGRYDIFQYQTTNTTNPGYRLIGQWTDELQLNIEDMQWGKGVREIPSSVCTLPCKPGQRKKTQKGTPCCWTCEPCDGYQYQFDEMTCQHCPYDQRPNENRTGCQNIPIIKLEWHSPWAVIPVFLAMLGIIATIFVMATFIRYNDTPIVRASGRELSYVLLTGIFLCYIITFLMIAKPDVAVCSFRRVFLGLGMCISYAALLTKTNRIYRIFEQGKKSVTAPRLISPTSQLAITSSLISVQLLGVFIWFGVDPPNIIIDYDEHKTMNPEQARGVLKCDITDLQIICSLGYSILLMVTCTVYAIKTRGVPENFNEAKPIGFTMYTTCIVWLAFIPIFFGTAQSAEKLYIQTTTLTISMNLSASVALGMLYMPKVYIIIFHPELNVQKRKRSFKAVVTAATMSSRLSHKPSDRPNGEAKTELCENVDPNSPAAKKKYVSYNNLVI", "assay": "Inhibition of forskolin-stimulated cAMP production in BHK cells transfected with mGluR7", "type": "cell-based", "details": "for decrease in cAMP: agonist 100 μM; for inhibition of forskolin-stimulated cAMP production: forskolin 10 μM, 10 minutes, IBMX 1 mM; for agonist potency at mGluR7 compared with that previously observed for mGluR4 or mGluR6: cAMP inhibition, no full concentration-response analysis; for antagonism of the inhibition of cAMP produced by L-AP4: antagonist 1 mM", "description": "FIG. 2 depicts the inhibition of forskolin-stimulated cAMP production by mGluR7 in baby hamster kidney cells. BHK cells transfected with mGluR7 were preincubated for 20 minutes in IBMX (1 mM), then incubated for 10 minutes with forskolin (10 μM) in the presence or absence of agonists or antagonists.\nBHK cells were transfected with mGluR7 subcloned into pZEM229R. Plasmid pZEM229R is a pUC18-based expression vector containing an EcoRI cloning site between a mouse metallothionein-I promoter and an SV40 transcription terminator. The vector also contains an expression unit of the SV40 early promoter, mouse dihydrofolate reductase gene, and SV40 terminator. The two expression units are in opposite orientations with their respective promoters adjacent to each other. E. coli HB101 transformed with pZEM229R was deposited with American Type Culture Collection, 12301 Parklawn Drive, Rockville, MD on Sep. 28, 1993.\n(§1) The cells were grown in 10% fetal calf serum and Dulbecco's minimal essential media (DMEM), and transfected clones were selected by methotrexate resistance. Resistant clones were assayed for the presence of mGluR7 RNA and protein. Confluent cells were assayed for cAMP production (Amersham) in the presence of IBMX (1 mM) isobutylmethylxanthine; cAMP levels were measured after 10 minute treatment with forskolin (10 μM) in the presence or absence of mGluR agonists or antagonists. Assays were performed in triplicate three times and the average value from these experiments expressed as the mean cAMP levels plus and minus the standard deviation. The basal cAMP production was subtracted from the stimulated levels and the inhibition was plotted as a percent of the forskolin-stimulated control."}, "[2]": {"tested_on": "mGluR1", "assay": "Calcium-activated chloride current in Xenopus oocytes injected with mGluR1 mRNA (two-electrode voltage clamp)", "type": "cell-based", "details": "sister oocytes injected with mGluR1 mRNA", "description": "(§2) For oocyte expression studies, xenopus laevis (Xenopus I, Ann Arbor) were anesthetized with tricaine and oocytes harvested using sterile technique. RNA transcripts from mGluR1 and mGluR7 were injected into Stage V-VI oocytes (1-100 ng RNA/oocyte) and the oocytes were assayed for production of a calcium-activated chloride current using a two-electrode voltage clamp. Harvesting of oocytes, solutions and recording methods were as described by Lester and colleagues (Dascal et al., Brain Res. 387: 201-209 [1986], which is incorporated herein by reference)."}, "[3]": {"biological_target": "T1, mGluR7", "assay": "Calcium-activated chloride current in Xenopus oocytes injected with mGluR7 mRNA (two-electrode voltage clamp)", "type": "cell-based", "description": "as §2"}, "[4]": {"tested_on": "mGluR4", "assay": "Forskolin-stimulated cAMP assay in a BHK clone expressing mGluR4", "type": "cell-based", "details": "L-AP4 1 mM"}, "[5]": {"tested_on": "wild-type BHK cells", "assay": "cAMP levels in wild-type BHK cells", "type": "cell-based, hamster", "description": "as §1"}, "[6]": {"details": "agonist 1 mM, BHK cells expressing mGluR7"}}, "note": "Entries after “also recorded” stand apart in the source; their conditions may differ.", "data": [{"smiles": "N[C@@H](CCC(=O)O)C(=O)O", "note": "[glutamate]", "values": [{"measurement": "decrease in cAMP", "setting": "[1]; BHK cells expressing mGluR7", "result": "small decreases in cAMP which were not statistically significant"}, {"measurement": "inhibition of forskolin-stimulated cAMP production", "setting": "[1]; [6]", "result": "less efficient; also recorded: inhibited"}, {"measurement": "agonist potency at mGluR7 compared with that previously observed for mGluR4 or mGluR6", "setting": "[1]", "result": "much less potent agonists"}, {"measurement": "glutamate response (calcium-activated chloride current)", "setting": "[2]", "result": "large calcium-activated chloride currents"}, {"measurement": "glutamate response (calcium-activated chloride current)", "setting": "[3]", "result": "no glutamate responses"}]}, {"smiles": "N[C@@H](Cn1oc(=O)[nH]c1=O)C(=O)O", "note": "[quisqualate]", "values": [{"measurement": "inhibition of forskolin-stimulated cAMP production", "setting": "[1]; agonist 0.5 mM, BHK cells expressing mGluR7", "result": "less efficient; also recorded: much less effective"}]}, {"smiles": "N[C@@H](CCP(=O)(O)O)C(=O)O", "note": "[L-AP4, L-2-amino-4-phosphonobutryic acid]", "values": [{"measurement": "decrease in cAMP", "setting": "[1]; BHK cells expressing mGluR7", "result": "small decreases in cAMP which were not statistically significant"}, {"measurement": "inhibition of forskolin-stimulated cAMP production", "setting": "[1]; [6]", "result": "largest inhibition; also recorded: inhibited"}, {"measurement": "agonist potency at mGluR7 compared with that previously observed for mGluR4 or mGluR6", "setting": "[1]", "result": "much less potent agonists"}, {"measurement": "inhibition (cAMP) in BHK clone expressing mGluR4", "setting": "[4]", "result": 45, "unit": "%"}, {"measurement": "effect on basal cAMP levels", "setting": "[5]", "result": "no significant effect"}, {"measurement": "effect on forskolin-stimulated cAMP levels", "setting": "[5]", "result": "no significant effect"}]}, {"smiles": "CC(N)(C(=O)O)c1ccc(C(=O)O)cc1", "note": "(racemic) [MCPG, RS-α-methyl-4-carboxyphenylglycine]", "values": [{"measurement": "antagonism of the inhibition of cAMP produced by L-AP4", "setting": "[1]; BHK cells expressing mGluR7", "result": "did not antagonize"}]}, {"smiles": "N[C@@]1(C(=O)O)CC[C@@H](C(=O)O)C1", "note": "[ACPD, (1S,3R)-1-aminocyclopentane-1,3-dicarboxylic acid]", "values": [{"measurement": "inhibition of forskolin-stimulated cAMP production", "setting": "[1]; [6]", "result": "less efficient; also recorded: much less effective"}]}, {"smiles": "N[C@@H](CP(=O)(O)O)C(=O)O", "note": "[L-AP3, 2-amino-3-phosphonopropionic acid]", "values": [{"measurement": "antagonism of the inhibition of cAMP produced by L-AP4", "setting": "[1]; BHK cells expressing mGluR7", "result": "did not antagonize"}, {"measurement": "antagonism of mGluR7-mediated cAMP inhibition", "setting": "[1]; antagonist 3 mM, BHK cells expressing mGluR7", "result": "did not antagonize"}]}]}
